Measured values from the NIST ThermoML archive (doi:10.1016/j.jct.2015.08.014).

Assay: xn = mol fraction of the nth substance listed
Settings: 298.15 K, 100 kPa, Liquid, Alternating current cell with electrodes

CCCC[N+]1(C)CCCC1.N#CN=C=[N-] [1-butyl-1-methylpyrrolidinium dicyanamide] + O=C1CCCO1
Settings	electrical conductivity [S/m]
Frequency=0.005 MHz, x1 = 0.3029	2.54
Frequency=0.005 MHz, x1 = 0.3845	2.36
Frequency=0.005 MHz, x1 = 0.4985	2.08
Frequency=0.005 MHz, x1 = 0.6954	1.68
Frequency=0.005 MHz, x1 = 0.9013	1.39
Frequency=0.005 MHz, x1 = 1	1.317
Frequency=0.005454 MHz, x1 = 0.0463	1.47
Frequency=0.005454 MHz, x1 = 0.0987	2.21
Frequency=0.005454 MHz, x1 = 0.1449	2.51
Frequency=0.005454 MHz, x1 = 0.1859	2.67
Frequency=0.005454 MHz, x1 = 0.2493	2.613
Frequency=0.005454 MHz, x1 = 0.3029	2.54
Frequency=0.005454 MHz, x1 = 0.3845	2.36
Frequency=0.005454 MHz, x1 = 0.4985	2.08
Frequency=0.005454 MHz, x1 = 0.6954	1.68
Frequency=0.005454 MHz, x1 = 0.9013	1.39
Frequency=0.005454 MHz, x1 = 1	1.317
Frequency=0.006 MHz, x1 = 0.0463	1.47
Frequency=0.006 MHz, x1 = 0.0987	2.21
Frequency=0.006 MHz, x1 = 0.1449	2.51
Frequency=0.006 MHz, x1 = 0.1859	2.67
Frequency=0.006 MHz, x1 = 0.2493	2.613
Frequency=0.006 MHz, x1 = 0.3029	2.54
Frequency=0.006 MHz, x1 = 0.3845	2.36
Frequency=0.006 MHz, x1 = 0.4985	2.08
Frequency=0.006 MHz, x1 = 0.6954	1.68
Frequency=0.006 MHz, x1 = 0.9013	1.39
Frequency=0.006 MHz, x1 = 1	1.317
Frequency=0.00652174 MHz, x1 = 0.0463	1.47
Frequency=0.00652174 MHz, x1 = 0.0987	2.22
Frequency=0.00652174 MHz, x1 = 0.1449	2.51
Frequency=0.00652174 MHz, x1 = 0.1859	2.67
Frequency=0.00652174 MHz, x1 = 0.2493	2.613
Frequency=0.00652174 MHz, x1 = 0.3029	2.54
Frequency=0.00652174 MHz, x1 = 0.3845	2.36
Frequency=0.00652174 MHz, x1 = 0.4985	2.08
Frequency=0.00652174 MHz, x1 = 0.6954	1.68
Frequency=0.00652174 MHz, x1 = 0.9013	1.39
Frequency=0.00652174 MHz, x1 = 1	1.317
Frequency=0.00694444 MHz, x1 = 0.0463	1.47
Frequency=0.00694444 MHz, x1 = 0.0987	2.22
Frequency=0.00694444 MHz, x1 = 0.1449	2.51
Frequency=0.00694444 MHz, x1 = 0.1859	2.67
Frequency=0.00694444 MHz, x1 = 0.2493	2.613
Frequency=0.00694444 MHz, x1 = 0.3029	2.54
Frequency=0.00694444 MHz, x1 = 0.3845	2.36
Frequency=0.00694444 MHz, x1 = 0.4985	2.08
Frequency=0.00694444 MHz, x1 = 0.6954	1.68
Frequency=0.00694444 MHz, x1 = 0.9013	1.39
Frequency=0.00694444 MHz, x1 = 1	1.317
Frequency=0.0075 MHz, x1 = 0.0463	1.47
Frequency=0.0075 MHz, x1 = 0.0987	2.22
Frequency=0.0075 MHz, x1 = 0.1449	2.51
Frequency=0.0075 MHz, x1 = 0.1859	2.67
Frequency=0.0075 MHz, x1 = 0.2493	2.613
Frequency=0.0075 MHz, x1 = 0.3029	2.54
Frequency=0.0075 MHz, x1 = 0.3845	2.36
Frequency=0.0075 MHz, x1 = 0.4985	2.08
Frequency=0.0075 MHz, x1 = 0.6954	1.68
Frequency=0.0075 MHz, x1 = 0.9013	1.39
Frequency=0.0075 MHz, x1 = 1	1.318
Frequency=0.008 MHz, x1 = 0.0463	1.47
Frequency=0.008 MHz, x1 = 0.0987	2.22
Frequency=0.008 MHz, x1 = 0.1449	2.51
Frequency=0.008 MHz, x1 = 0.1859	2.67
Frequency=0.008 MHz, x1 = 0.2493	2.613
Frequency=0.008 MHz, x1 = 0.3029	2.54
Frequency=0.008 MHz, x1 = 0.3845	2.36
Frequency=0.008 MHz, x1 = 0.4985	2.08
Frequency=0.008 MHz, x1 = 0.6954	1.68
Frequency=0.008 MHz, x1 = 0.9013	1.39
Frequency=0.008 MHz, x1 = 1	1.318
Frequency=0.00857143 MHz, x1 = 0.0463	1.48
Frequency=0.00857143 MHz, x1 = 0.0987	2.22
Frequency=0.00857143 MHz, x1 = 0.1449	2.51
Frequency=0.00857143 MHz, x1 = 0.1859	2.67
Frequency=0.00857143 MHz, x1 = 0.2493	2.613
Frequency=0.00857143 MHz, x1 = 0.3029	2.54
Frequency=0.00857143 MHz, x1 = 0.3845	2.36
Frequency=0.00857143 MHz, x1 = 0.4985	2.08
Frequency=0.00857143 MHz, x1 = 0.6954	1.68
Frequency=0.00857143 MHz, x1 = 0.9013	1.39
Frequency=0.00857143 MHz, x1 = 1	1.318
Frequency=0.00892857 MHz, x1 = 0.0463	1.48
Frequency=0.00892857 MHz, x1 = 0.0987	2.22
Frequency=0.00892857 MHz, x1 = 0.1449	2.51
Frequency=0.00892857 MHz, x1 = 0.1859	2.67
Frequency=0.00892857 MHz, x1 = 0.2493	2.614
Frequency=0.00892857 MHz, x1 = 0.3029	2.54
Frequency=0.00892857 MHz, x1 = 0.3845	2.36
Frequency=0.00892857 MHz, x1 = 0.4985	2.08
Frequency=0.00892857 MHz, x1 = 0.6954	1.68
Frequency=0.00892857 MHz, x1 = 0.9013	1.39
Frequency=0.00892857 MHz, x1 = 1	1.318
Frequency=0.00961538 MHz, x1 = 0.0463	1.48
Frequency=0.00961538 MHz, x1 = 0.0987	2.22
Frequency=0.00961538 MHz, x1 = 0.1449	2.51
Frequency=0.00961538 MHz, x1 = 0.1859	2.68
Frequency=0.00961538 MHz, x1 = 0.2493	2.614
Frequency=0.00961538 MHz, x1 = 0.3029	2.54
Frequency=0.00961538 MHz, x1 = 0.3845	2.36
Frequency=0.00961538 MHz, x1 = 0.4985	2.08
Frequency=0.00961538 MHz, x1 = 0.6954	1.68
Frequency=0.00961538 MHz, x1 = 0.9013	1.39
Frequency=0.00961538 MHz, x1 = 1	1.318
Frequency=0.01 MHz, x1 = 0.0463	1.48
Frequency=0.01 MHz, x1 = 0.0987	2.22
